{
  "source": "patent US5852191A",
  "about": "“Rigidized monomethine cyanines” (Carnegie Mellon University, priority 1995, dated 1998)",
  "assay_type_in_all_cases": "physicochemical",
  "key": {"[1]": {"test": "Relative fluorescence intensities of the compounds of Examples A and B in a variety of solvents (Table 4)", "from_the_text": "See M. T. Ramos et al., Heterocycles, Vol. 29, p. 165 (1989)."}, "[2]": {"test": "Relative fluorescence of boron-rigidized vs unrigidized dye in methanol (FIG. 2)", "settings": "excited at 348 nm, vs bis-benzoxazolylmethene hydrochloride", "from_the_text": "The present inventors have determined that the rigidization of the basic monomethine cyanine structure increase the quantum efficiency of the dye molecules as much as 5 to 20 times. Thus, the boron-rigidized dyes of the present invention are unusually fluorescent compared with nonrigidized cyanine dye molecules. The present invention thus provides a method for increasing the fluorescence of dyes by rigidizing monomethine cyanine compounds with a boron bridge. Rigidization increase the planarity of the compound, and the fluorescence intensity."}, "[3]": {"test": "Qualitative solubility of the compounds of Examples A and B (Table 3)", "settings": "applies to either dye compound", "from_the_text": "(§1) The observed absorption maxima, molar extinction coefficients, emission maxima and qualitative solubility data for the boron-rigidized complexes of Examples A and B are provided in Table 3."}, "[4]": {"test": "Absorption/emission spectra and molar extinction coefficients of the compounds of Examples A and B in solvents (Table 3)", "from_the_text": "as §1"}, "[5]": {"test": "Resistance to photodegradation (500 watt mercury vapor lamp; optical density monitored)", "from_the_text": "The resistance to photodegradation of the compounds of Examples A and B in methanol and dichloromethane was also investigated and was compared with photofading rates of certain Coumarin dyes. A degassed solution of each dye in a quartz cuvette was illuminated with a 500 watt mercury vapor lamp from a distance of 4 inches. The solution optical density at maximum wavelength was monitored as a function of time."}},
  "data": [
    {"smiles": "F[B-]1(F)N2C(=Cc3oc4ccccc4[n+]31)Oc1ccccc12", "note": "[Example B, Bis-benzoxazolylmethene Borondifluoride]", "values": [
      {"measurement": "Relative fluorescence intensity", "setting": "[1]; Acetonitrile", "result": 1.39},
      {"measurement": "Relative fluorescence intensity", "setting": "[1]; Chloroform", "result": 1.27},
      {"measurement": "Relative fluorescence intensity", "setting": "[1]; Ethanol", "result": 1.33},
      {"measurement": "Relative fluorescence intensity", "setting": "[1]; Ethyl Acetate", "result": 1.20},
      {"measurement": "Relative fluorescence intensity", "setting": "[1]; Methanol", "result": 1.35},
      {"measurement": "Relative fluorescence intensity", "setting": "[1]; Toluene", "result": 1.42},
      {"measurement": "Quantum yield compared with the unrigidized dye", "setting": "[2]", "result": "several fold greater than the unrigidized dye"},
      {"measurement": "Solubility data (qualitative)", "setting": "[3]; Acetonitrile", "result": "sol."},
      {"measurement": "Solubility data (qualitative)", "setting": "[3]; Chloroform", "result": "sol."},
      {"measurement": "Solubility data (qualitative)", "setting": "[3]; Ethanol", "result": "sparingly"},
      {"measurement": "Solubility data (qualitative)", "setting": "[3]; Ethyl Acetate", "result": "sol."},
      {"measurement": "Solubility data (qualitative)", "setting": "[3]; Methanol", "result": "sparingly"},
      {"measurement": "Solubility data (qualitative)", "setting": "[3]; Toluene", "result": "sol."},
      {"measurement": "Logarithm of the Extinction coefficient", "setting": "[4]; Acetonitrile", "result": 4.72, "unit": "M^-1 cm^-1"},
      {"measurement": "Max. absorption wavelength", "setting": "[4]; Acetonitrile", "result": 358, "unit": "nm"},
      {"measurement": "Max. emission wavelength", "setting": "[4]; Acetonitrile", "result": 385, "unit": "nm"},
      {"measurement": "Logarithm of the Extinction coefficient", "setting": "[4]; Chloroform", "result": 4.72, "unit": "M^-1 cm^-1"},
      {"measurement": "Max. absorption wavelength", "setting": "[4]; Chloroform", "result": 360, "unit": "nm"},
      {"measurement": "Max. emission wavelength", "setting": "[4]; Chloroform", "result": 386, "unit": "nm"},
      {"measurement": "Max. absorption wavelength", "setting": "[4]; Ethanol", "result": 358, "unit": "nm"},
      {"measurement": "Max. emission wavelength", "setting": "[4]; Ethanol", "result": 386, "unit": "nm"},
      {"measurement": "Logarithm of the Extinction coefficient", "setting": "[4]; Ethyl Acetate", "result": 4.74, "unit": "M^-1 cm^-1"},
      {"measurement": "Max. absorption wavelength", "setting": "[4]; Ethyl Acetate", "result": 358, "unit": "nm"},
      {"measurement": "Max. emission wavelength", "setting": "[4]; Ethyl Acetate", "result": 383, "unit": "nm"},
      {"measurement": "Shape of emission spectrum relative to absorption spectrum", "setting": "[4]; FIG. 3 and FIG. 4", "result": "appears to be much broader"},
      {"measurement": "Max. absorption wavelength", "setting": "[4]; Methanol", "result": 358, "unit": "nm"},
      {"measurement": "Max. emission wavelength", "setting": "[4]; Methanol", "result": 385, "unit": "nm"},
      {"measurement": "Logarithm of the Extinction coefficient", "setting": "[4]; Toluene", "result": 4.74, "unit": "M^-1 cm^-1"},
      {"measurement": "Max. absorption wavelength", "setting": "[4]; Toluene", "result": 360, "unit": "nm"},
      {"measurement": "Max. emission wavelength", "setting": "[4]; Toluene", "result": 392, "unit": "nm"},
      {"measurement": "Stokes shift", "setting": "[4]; solvents of Table 3", "result": 28, "unit": "nm"},
      {"measurement": "Red shift at the maximum wavelength", "setting": "[5]; dichloromethane", "result": "approximately 12 nm"},
      {"measurement": "Resistance to photofading compared with the Coumarin dyes", "setting": "[5]; dichloromethane", "result": "more resistant to photofading than the Coumarin dyes"},
      {"measurement": "Photofading rate compared with the corresponding Coumarin compound", "setting": "[5]; methanol, 500 watt mercury vapor lamp", "result": "faded at a similar rate"}
    ]}
  ]
}
